# Columns and labels:
# [1] = test system: ventilatory pattern generator of the locust, Locusta migratoria; assay: Hyperthermic failure and recovery of locust ventilatory motor pattern; format: in vivo; details: for thermotolerance of neural function (failure temperature, FIG. 7A): 1 μM KT5823, 1 μM Cantharidin, 40 μM 8-Bromo cGMP
# Method: To determine if the thermoprotective consequences of PKG manipulations also apply to central circuitry and motor pattern generation, the thermotolerance of the ventilatory pattern generator was measured (Robertson, R. M. 2004) of the locust, Locusta migratoria. […] Ventilatory arrhythmias (Arr) in untreated animals prior to hyperthermic failure are rarely seen in preparations treated with the PKG inhibitor (FIG. 4.). At failure, temperature was returned to room temperature and time to recovery recorded. Pretreated controls recover after 180.2±42.4 sec whereas KT5823-pretreated animals recover after 62.3±13.4 sec. […] Once ventilatory pattern failure occurs during a temperature ramp, heating was terminated and the motor pattern was monitored until recovery.
# Male locusts aged 4-6 weeks were dissected and pinned on a cork board; overlying tissue was removed exposing the metathoracic ganglion. Standard locust saline was superfused and heated at a rate of 5° C./2 min. until motor pattern failure, after which saline was allowed to return to room temperature. Ventilatory motor patterns were monitored using an EMG electrode on muscle 161 in the second abdominal segment. Pressure injection (32±13.5 nL, 10 psi, 150 ms) into the ventilatory neuropil was with a glass microelectrode filled with either 1 μM KT5823 in standard locust saline or locust saline alone (sham treatment) 10 min. (pretreated) before, or during (acutely treated; ˜3 min. before failure in controls) the temperature ramp.
# FIGS. 7 to 8 illustate hyperthermic failure of locust ventilatory motor pattern generation. FIG. 8 illustrates sample traces of the ventilatory rhythm recorded from an abdominal expiratory muscle in a control locust. The ventilatory arrhythmias prior to failure should be noted. At failure, temperature was allowed to return to room temperature and time to recovery was recorded. The ventilatory motor pattern after recovery is at a lower frequency than just prior to failure because the temperature is lower. […] Significant differences were found across all groups (ANOVA F(9,105)=13.160, p<0.001). […] Here too significant differences were found across all groups (ANOVA […], p<0.001) N>5 for all treatments. […] Error bars represent SEM.
# [2] = test system: ventilatory pattern generator of the locust, Locusta migratoria; assay: as above; format: in vivo
# febrile seizures = details: intermittent treatment of febrile seizures; cited from earlier work
smiles,measurement,setting,value
"Nc1nc2c(nc(Br)n2[C@@H]2O[C@@H]3COP(=O)(O)O[C@H]3[C@H]2O)c(=O)[nH]1 [8-Bromo cGMP, 8-bromo-guanosine 3′,5′-cyclic monophosphate]","thermotolerance of neural function (failure temperature, FIG. 7A)",[1],did not increase the thermotolerance of the circuit
same,effect on protective effects of heat shock preconditioning,"[1]; 40 μM, HS animals (3 hr at 45° C.)",abolished the protective effects of heat shock preconditioning
"CC12C(=O)OC(=O)C1(C)C1CCC2O1 (stereo not shown) [Cantharidin, Hexahydro-3a,7a-dimethyl-4,7-epoxyisobenzofuran-1,3-dione]",thermotolerance in HS animals given 8-Bromo cGMP plus Cantharidin,"[1]; 1 μM Cantharidin with 40 μM 8-Bromo cGMP, HS animals",counteracted the effect of 8-Bromo cGMP in HS animals thereby inducing maximal thermotolerance
same,"thermotolerance of neural function (failure temperature, FIG. 7A)",[1],increased the thermotolerance of neural function
COC(=O)[C@@]1(OC)C[C@H]2O[C@]1(C)n1c3ccccc3c3c4c(c5c6ccccc6n2c5c31)C(=O)N(C)C4 [KT5823],"thermal protection of the circuit, pretreated",[2]; 25 nL of 1 μM injected 10 minutes before increasing temperature,thermoprotection and rapid recovery of the circuit was observed
same,"thermal protection of the circuit, acutely treated",[2]; one 25 nL dose injected during temperature ramp 3 min. before failure,extremely rapid and equally pronounced thermal protection of the circuit was observed
same,time to recovery of ventilatory motor pattern after failure,"[2]; pretreated: 25 nL of 1 μM injected into ventilatory neuropil 10 min before temperature ramp, return to room temperature at failure",62.3 ± 13.4 s
same,"thermotolerance of neural function (failure temperature, FIG. 7A)",[1],increased the thermotolerance of neural function
same,"acute effect of injection on ventilatory rhythm frequency, burst duration or duty cycle","[1]; 1 μM pressure injection, data not shown",no acute effect
same,preparations with arrhythmias before failure,"[1]; during temperature ramp, controls 60%",11%
Nc1ncnc2c1ncn2[C@@H]1O[C@@H]2COP(O)(=S)O[C@H]2[C@H]1O (stereo partly shown) [RP-cAMP],failure temperature compared with controls,"[1]; PKA inhibitor, data not shown",no significant differences
same,recovery time compared with controls,"[1]; PKA inhibitor, data not shown",no significant differences
CN1C(=O)CN=C(c2ccccc2)c2cc(Cl)ccc21 [diazepam],reduction in risk per patient year,febrile seizures,44%

# From patent US7858579B2, “Thermoprotective compositions of pkg pathway inhibitors and method of use thereof” (priority 2005, dated 2010)
